# Reference: PMC5663982, “Imaging the Antistaphylococcal Activity of CATH-2: Mechanism of Attack and Regulation of Inflammatory Response” (mSphere, 2017)
# Biological target: T1, CATH-2 (chicken cathelicidin-2) (Gallus gallus, UniProt Q2IAL7)
# T1 construct: gene CATHL2; Fmoc synthesis, unlabelled; cut from the cathelicidin-2 precursor
# T1 sequence (Q2IAL7 128-153): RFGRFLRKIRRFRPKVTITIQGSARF
# Assay: isothermal titration calorimetry
# Assay type: binding
# Details: PBS, 1.5% ethanol, 20 °C; 400 µM CATH-2 titrated into 200 µM cardiolipin (Sigma-Aldrich, source and acyl chains not told); n = 2, SEM; lipid suspension
# Description: isothermal titration calorimetry on CATH-2 (chicken cathelicidin-2)
substance,measurement,value
cardiolipin,Kd,72.1 ± 57.1 nM
